Test results taken from ChEMBL document CHEMBL1275563, “Genetic characterization of Vga ABC proteins conferring reduced susceptibility to pleuromutilins in Staphylococcus aureus” (2008).
Converted amounts (≈) assume the structure as drawn. Numbered stars: 1 amine (or outer) side, 2 acyl side, 3 side chain; on linkers, the order of the positions; unused ones are H or OH. Bridge positions count the residues as written; N and C are the ends. Square brackets hold non-standard residues; d marks the D form. Peptide text beside a SMILES is read from it. * marks the point of attachment. X1 = O=C1C[C@@H](C(=O)[*:2])N([*:1])C[C@H]1CS[C@@H]1CN2CCC1CC2; NMePhe(4-NMe2) = CN[C@@H](Cc1ccc(N(C)C)cc1)C(=O)O; Picolinoyl(3-OH) = O=C(c1ncccc1O)*; Phg = N[C@H](C(=O)O)c1ccccc1; dAbu = CC[C@@H](N)C(=O)O

What was measured:
[1] = test system: Staphylococcus aureus; assay: Antimicrobial activity against Staphylococcus aureus RN4220 harboring plasmid CU1
[2] = test system: Staphylococcus aureus; assay: Antimicrobial activity against Staphylococcus aureus RN1024; type: functional
[3] = test system: Staphylococcus aureus; assay: Antimicrobial activity against Staphylococcus aureus RN4220; type: functional
[4] = test system: Staphylococcus aureus; assay: Antimicrobial activity against Staphylococcus aureus RN4220 harboring plasmid VGA
[5] = test system: Staphylococcus aureus; assay: microbe, parasite or virus in culture; settings: ATCC 29213
Description: Antimicrobial activity against Staphylococcus aureus ATCC 29213

[6] = test system: Staphylococcus aureus; assay: Antimicrobial activity against Staphylococcus aureus RN1024-tms; type: functional
[7] = test system: Staphylococcus aureus; assay: Antimicrobial activity against Staphylococcus aureus RN4220 harboring vgaAv positive plasmid CU1
[8] = test system: Staphylococcus aureus; assay: Antimicrobial activity against Staphylococcus aureus IHMA127277 harboring vgaAv positive Tn5406 transposon; type: functional
[9] = test system: Staphylococcus aureus; assay: Antimicrobial activity against Staphylococcus aureus IV20205004 harboring vgaAv positive Tn5406 transposon; type: functional
[10] = test system: Staphylococcus aureus; assay: Antimicrobial activity against Staphylococcus aureus IV20222009 harboring vgaAv positive Tn5406 transposon; type: functional
[11] = test system: Staphylococcus aureus; assay: Antimicrobial activity against Staphylococcus aureus IV20217033 harboring vgaA positive plasmid VGA; type: functional
[12] = test system: Staphylococcus aureus; assay: Antimicrobial activity against Staphylococcus aureus IV20204009 harboring vgaAv positive Tn5406 transposon; type: functional
[13] = test system: Staphylococcus aureus; assay: Antimicrobial activity against Staphylococcus aureus IV20217008 harboring vgaAv positive Tn5406 transposon; type: functional

Compound	MIC [1] [µg/mL]	MIC [2] [µg/mL]	MIC [3] [µg/mL]	MIC [4] [µg/mL]	MIC [5] [µg/mL]	MIC [6] [µg/mL]	MIC [7] [µg/mL]	MIC [8] [µg/mL]	MIC [9] [µg/mL]	MIC [10] [µg/mL]	MIC [11] [µg/mL]	MIC [12] [µg/mL]	MIC [13] [µg/mL]
CCN(CC)CCS(=O)(=O)[C@@H]1CCN2C(=O)c3coc(n3)CC(=O)C[C@H](O)/C=C(C)/C=C/CNC(=O)/C=C/[C@@H](C)[C@@H](C(C)C)OC(=O)[C@@H]12 [DALFOPRISTIN]	4 (≈ 5.79 µM)	64 (≈ 92.6 µM)	4 (≈ 5.79 µM)	32 (≈ 46.3 µM)	8 (≈ 11.6 µM)	8 (≈ 11.6 µM)	64 (≈ 92.6 µM)	–	–	–	–	–	–
CC[C@H]1NC(=O)[C@@H](NC(=O)c2ncccc2O)[C@@H](C)OC(=O)[C@H](c2ccccc2)NC(=O)[C@@H]2CC(=O)[C@H](CS[C@@H]3CN4CCC3CC4)CN2C(=O)[C@H](Cc2ccc(N(C)C)cc2)N(C)C(=O)[C@@H]2CCCN2C1=O [QUINUPRISTIN] ({Picolinoyl(3-OH)}-T[dAbu]P[NMePhe(4-NMe2)][X1][Phg]; ester 1-C)	4 (≈ 3.91 µM)	4 (≈ 3.91 µM)	4 (≈ 3.91 µM)	4 (≈ 3.91 µM)	4 (≈ 3.91 µM)	4 (≈ 3.91 µM)	1 (≈ 0.978 µM)	–	–	–	–	–	–
C/C(=C\C(=O)OCCCCCCCCC(=O)O)C[C@@H]1OC[C@H](C[C@@H]2O[C@H]2[C@@H](C)[C@H](C)O)[C@@H](O)[C@H]1O [MUPIROCIN]	–	0.25 (≈ 0.499 µM)	≤ 0.06	–	0.25 (≈ 0.499 µM)	0.25 (≈ 0.499 µM)	–	–	–	–	–	–	–
COc1cc(Cc2cnc(N)nc2N)cc(OC)c1OC [TRIMETHOPRIM]	2 (≈ 6.89 µM)	2 (≈ 6.89 µM)	2 (≈ 6.89 µM)	2 (≈ 6.89 µM)	2 (≈ 6.89 µM)	2 (≈ 6.89 µM)	2 (≈ 6.89 µM)	–	–	–	–	–	–
C=C[C@]1(C)C[C@@H](OC(=O)CS[C@@H]2C[C@H]3CC[C@@H](C2)N3C)[C@]2(C)[C@H](C)CC[C@]3(CCC(=O)[C@H]32)[C@@H](C)[C@@H]1O [RETAPAMULIN]	–	2 (≈ 3.86 µM)	≤ 0.06	32 (≈ 61.8 µM)	≤ 0.06	≤ 0.06	32 (≈ 61.8 µM)	2 (≈ 3.86 µM)	2 (≈ 3.86 µM)	4 (≈ 7.73 µM)	64 (≈ 124 µM)	2 (≈ 3.86 µM)	4 (≈ 7.73 µM)
CC[C@H]1OC(=O)[C@H](C)[C@@H](O[C@H]2C[C@@](C)(OC)[C@@H](O)[C@H](C)O2)[C@H](C)[C@@H](O[C@@H]2O[C@H](C)C[C@H](N(C)C)[C@H]2O)[C@](C)(O)C[C@@H](C)C(=O)[C@H](C)[C@@H](O)[C@]1(C)O [ERYTHROMYCIN]	0.25 (≈ 0.341 µM)	0.25 (≈ 0.341 µM)	0.25 (≈ 0.341 µM)	0.25 (≈ 0.341 µM)	0.5 (≈ 0.681 µM)	0.25 (≈ 0.341 µM)	0.125 (≈ 0.17 µM)	–	–	–	–	–	–
CN(C)[C@@H]1C(O)=C(C(N)=O)C(=O)[C@@]2(O)C(O)=C3C(=O)c4c(O)cccc4[C@@](C)(O)[C@H]3C[C@@H]12 [TETRACYCLINE]	0.25 (≈ 0.563 µM)	64 (≈ 144 µM)	0.25 (≈ 0.563 µM)	–	0.5 (≈ 1.13 µM)	64 (≈ 144 µM)	0.125 (≈ 0.281 µM)	–	–	–	–	–	–
C=C[C@]1(C)C[C@@H](OC(=O)CSCCN(CC)CC)[C@]2(C)[C@H](C)CC[C@]3(CCC(=O)[C@H]32)[C@@H](C)[C@@H]1O [TIAMULIN]	0.25 (≈ 0.506 µM)	16 (≈ 32.4 µM)	0.5 (≈ 1.01 µM)	> 64	1 (≈ 2.03 µM)	0.5 (≈ 1.01 µM)	> 64	–	16 (≈ 32.4 µM)	16 (≈ 32.4 µM)	> 64	32 (≈ 64.8 µM)	32 (≈ 64.8 µM)
CO[C@H]1/C=C/O[C@@]2(C)Oc3c(C)c(O)c4c(O)c(c(/C=N/N5CCN(C)CC5)c(O)c4c3C2=O)NC(=O)/C(C)=C\C=C\[C@H](C)[C@H](O)[C@@H](C)[C@@H](O)[C@@H](C)[C@H](OC(C)=O)[C@@H]1C [RIFAMPIN]	–	> 64	≤ 0.06	–	< 0.06	> 64	–	–	–	–	–	–	–
CCC[C@@H]1C[C@@H](C(=O)N[C@@H]([C@H]2O[C@H](SC)[C@H](O)[C@@H](O)[C@H]2O)[C@@H](C)O)N(C)C1 [LINCOMYCIN]	0.5 (≈ 1.23 µM)	8 (≈ 19.7 µM)	0.5 (≈ 1.23 µM)	32 (≈ 78.7 µM)	2 (≈ 4.92 µM)	1 (≈ 2.46 µM)	32 (≈ 78.7 µM)	–	–	–	–	–	–
O=C(N[C@H](CO)[C@H](O)c1ccc([N+](=O)[O-])cc1)C(Cl)Cl [CHLORAMPHENICOL]	> 64	8 (≈ 24.8 µM)	8 (≈ 24.8 µM)	8 (≈ 24.8 µM)	16 (≈ 49.5 µM)	8 (≈ 24.8 µM)	> 64	–	–	–	–	–	–
GENTAMICIN	–	> 64	1	–	–	> 64	–	–	–	–	–	–	–
CC(=O)NC[C@H]1CN(c2ccc(N3CCOCC3)c(F)c2)C(=O)O1 [LINEZOLID]	–	–	–	–	–	–	1 (≈ 2.96 µM)	–	–	–	–	–	–
C[C@H]1COc2c(N3CCN(C)CC3)c(F)cc3c(=O)c(C(=O)O)cn1c23.C[C@H]1COc2c(N3CCN(C)CC3)c(F)cc3c(=O)c(C(=O)O)cn1c23.O [LEVOFLOXACIN]	0.125	16	0.125	0.125	0.125	32	0.125	–	–	–	–	–	–
CCC[C@@H]1C[C@@H](C(=O)N[C@@H]([C@H]2O[C@H](SC)[C@H](O)[C@@H](O)[C@H]2O)[C@H](C)Cl)N(C)C1 [CLINDAMYCIN]	0.06 (≈ 0.141 µM)	0.25 (≈ 0.588 µM)	0.06 (≈ 0.141 µM)	4 (≈ 9.41 µM)	0.125 (≈ 0.294 µM)	0.06 (≈ 0.141 µM)	2 (≈ 4.71 µM)	–	–	–	–	–	–
